From patent publication US9486462B2, “Formulations of aminoglycosides and fosfomycin in a combination having improved chemical properties” (CARDEAS PHARMA CORPORATION, priority 2013, dated 2016)

Experiments:
[1] = commercially available; cited from earlier work
Staphylococcus aureus [2] = conditions: cited from earlier work
Staphylococcus aureus [3] = test: Predicted lung concentration relative to MIC90, Staphylococcus aureus; assay type: in vivo
Method: (§1) In clinical use, concentration of the aminoglycoside and fosfomycin are delivered to yield a concentration in the lungs that is MIC90 for the target organism. For amikacin, about […] of amikacin chloride and about […] of fosfomycin disodium are delivered to the lung (50 mg amikacin chloride and 20 mg fosfomycin in solution) using a nebulizer with an expected 15% delivery efficiency.

[4] = in vivo
Method: as §1

pseudomonas = conditions: approximately 20 mg delivered to the lung, co-infected patients; cited from earlier work
[5] = system: highly resistant Gram-negative organisms; test: Predicted lung concentration relative to MIC90, Gram-negative organisms; assay type: in vivo; conditions: most highly resistant Gram-negative organisms
Method: as §1

[6] = cited from earlier work
[7] = pH of amikacin starting materials; assay type: physicochemical; conditions: amikacin base, before neutralization

Compound: NCC[C@H](O)C(=O)N[C@@H]1C[C@H](N)[C@@H](O[C@H]2O[C@H](CN)[C@@H](O)[C@H](O)[C@H]2O)[C@H](O)[C@H]1O[C@H]1O[C@H](CO)[C@@H](O)[C@H](N)[C@H]1O.O=S(=O)(O)O.O=S(=O)(O)O [amikacin sulfate]
- starting pH [1]: 3.5-5.5

Compound: C[C@@H]1O[C@@H]1P(=O)(O)O [fosfomycin]
- bacterial density (Staphylococcus aureus [2]; approximately 20 mg delivered to the lung, co-infected patients): Decreased bacterial density
- killing of staphylococcus (Staphylococcus aureus [2]; estimated 40 mg delivered dose versus estimated 20 mg dose): more efficacious
- predicted peak concentration, times the MIC90 (Staphylococcus aureus [3]): greater than 25 times
- predicted concentration delivered to the lungs [4]: about 5400 ug/mL
- bacterial density (pseudomonas): Decreased bacterial density

Compound: amikacin chloride
- predicted lung concentration, times the MIC90 [5]: greater than 25 times
- predicted concentration delivered to the lungs [4]: about 13,500 ug/mL

Compound: NCC[C@H](O)C(=O)N[C@@H]1C[C@H](N)[C@@H](O[C@H]2O[C@H](CN)CC[C@H]2N)[C@H](O)[C@H]1O[C@H]1O[C@H](CO)[C@@H](O)[C@H](N)[C@H]1O [arbekacin]
- pKa [6]: 10.2

Compound: NCC[C@H](O)C(=O)N[C@@H]1C[C@H](N)[C@@H](O[C@H]2O[C@H](CN)[C@@H](O)[C@H](O)[C@H]2O)[C@H](O)[C@H]1O[C@H]1O[C@H](CO)[C@@H](O)[C@H](N)[C@H]1O [amikacin]
- pH [7]: approximately 11

Compound: gentamycin
- pKa [6]: 8.2
